Columns and labels:
[1] = target: T1, Oxysterols receptor LXR-alpha (Homo sapiens) (UniProt Q13133); experiment: Agonist activity at LXRalpha by FRET assay relative to GW-3965A; assay type: functional
T1 sequence (whole entry): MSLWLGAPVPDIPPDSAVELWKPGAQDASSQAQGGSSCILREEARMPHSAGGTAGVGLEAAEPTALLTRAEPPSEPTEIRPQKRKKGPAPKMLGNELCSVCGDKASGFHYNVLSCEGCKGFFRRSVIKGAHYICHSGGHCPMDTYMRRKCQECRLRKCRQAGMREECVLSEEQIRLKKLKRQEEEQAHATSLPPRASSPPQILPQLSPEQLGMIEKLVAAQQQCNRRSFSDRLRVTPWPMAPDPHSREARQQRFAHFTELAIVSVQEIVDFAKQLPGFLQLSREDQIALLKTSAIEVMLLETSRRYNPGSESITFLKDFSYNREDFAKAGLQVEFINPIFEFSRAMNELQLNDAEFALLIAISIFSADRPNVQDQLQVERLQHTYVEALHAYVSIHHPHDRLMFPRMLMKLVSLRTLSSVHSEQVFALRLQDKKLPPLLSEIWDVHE

[2] = target: T2, Oxysterols receptor LXR-alpha (Homo sapiens, UniProt Q13133); experiment: Agonist activity at LXRalpha by FRET assay; assay type: functional
T2 sequence (Q13133 whole entry): T1 sequence (whole entry)

[3] = target: T3, Oxysterols receptor LXR-beta (Homo sapiens, UniProt P55055); experiment: Agonist activity at LXRbeta by FRET assay; assay type: functional
T3 sequence (P55055 whole entry): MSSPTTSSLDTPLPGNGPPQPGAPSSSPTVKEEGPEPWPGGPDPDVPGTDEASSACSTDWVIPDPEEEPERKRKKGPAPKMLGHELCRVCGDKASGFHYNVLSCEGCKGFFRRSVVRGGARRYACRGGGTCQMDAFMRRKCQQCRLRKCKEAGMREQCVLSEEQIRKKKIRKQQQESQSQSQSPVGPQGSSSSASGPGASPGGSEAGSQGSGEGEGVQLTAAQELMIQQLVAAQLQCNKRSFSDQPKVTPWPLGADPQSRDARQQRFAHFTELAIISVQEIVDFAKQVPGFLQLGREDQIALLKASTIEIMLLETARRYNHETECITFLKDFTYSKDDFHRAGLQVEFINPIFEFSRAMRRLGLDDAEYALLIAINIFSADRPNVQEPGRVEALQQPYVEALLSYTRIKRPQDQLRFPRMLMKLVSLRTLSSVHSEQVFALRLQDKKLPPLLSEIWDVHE

[4] = target: T4, Oxysterols receptor LXR-beta (Homo sapiens) (UniProt P55055); experiment: Agonist activity at LXRbeta by FRET assay relative to GW-3965A; assay type: functional; parameters: concentration or dose not given beside the values
T4 sequence (whole entry): T3 sequence (P55055 whole entry)

[5] = species: Mus musculus; experiment: Increase in ABCA1 expression in mouse macrophages by cholesterol efflux assay
[6] = Plasma clearance in Sprague-Dawley rat at 1.1 mg/kg, iv or 2.1 mg/kg, po; assay type: ADME, organism-based
[7] = Volume of distribution at steady state in Sprague-Dawley rat at 1.1 mg/kg, iv or 2.1 mg/kg, po; assay type: ADME, organism-based; details: in vivo, read-out: Vdss
[8] = Half life in Sprague-Dawley rat at 1.1 mg/kg, iv; assay type: ADME, organism-based; parameters: dose 1.1 mg/kg, route intravenous; details: in vivo
[9] = Cmax in Sprague-Dawley rat at 2.1 mg/kg, po; assay type: ADME, organism-based; parameters: dose 2.1 mg/kg, route oral; details: in vivo
[10] = Half life in Sprague-Dawley rat at 2.1 mg/kg, po; assay type: ADME, organism-based; parameters: dose 2.1 mg/kg, route oral; details: in vivo
[11] = Oral bioavailability in Sprague-Dawley rat at 2.1 mg/kg; assay type: ADME, organism-based; details: in vivo

Structure (SMILES)	Activity [1] [%]	EC50 [2] [nM]	EC50 [3] [nM]	Activity [4] [%]	EC50 [5] [nM]	clearance [6] [mL/min/kg]	Vd [7] [L/kg]	half-life [8] [h]	Cmax [9] [ng/mL]	half-life [10] [h]	bioavailability [11] [%]
Cc1cc(OCCCN(Cc2cccc(C(F)(F)F)c2Cl)CC(c2ccccc2)c2ccccc2)n[nH]1	25	23	15	30							
FC(F)(F)c1cccc(CN(CCCOc2n[nH]c3ccccc23)CC(c2ccccc2)c2ccccc2)c1Cl	17	110	60	44							
O=C(O)Cc1cccc(OCCCN(Cc2cccc(C(F)(F)F)c2Cl)CC(c2ccccc2)c2ccccc2)c1			25		50						
FC(F)(F)c1cccc(CN(CCCOc2cccc3[nH]ccc23)CC(c2ccccc2)c2ccccc2)c1Cl	90	60	15	104	5						
CS(=O)(=O)n1ccc2c(OCCCN(Cc3cccc(C(F)(F)F)c3Cl)CC(c3ccccc3)c3ccccc3)cccc21	50	20	7	72							
COC(=O)c1cc(OCCCN(Cc2cccc(C(F)(F)F)c2Cl)CC(c2ccccc2)c2ccccc2)no1	65	63	26	68							
COC(=O)Cc1c[nH]c2ccc(OCCCN(Cc3cccc(C(F)(F)F)c3Cl)CC(c3ccccc3)c3ccccc3)cc12	19	630	288	36							
FC(F)(F)c1cccc(CN(CCCOc2ccc3[nH]ccc3c2)CC(c2ccccc2)c2ccccc2)c1Cl	36	226	23	78							
O=C(O)Cn1ccc2c(OCCCN(Cc3cccc(C(F)(F)F)c3Cl)CC(c3ccccc3)c3ccccc3)cccc21	132	14	4	105	15	14.6	1.15	1.35	1810	2.9	45.4
Cn1ccc2c(OCCCN(Cc3cccc(C(F)(F)F)c3Cl)CC(c3ccccc3)c3ccccc3)cccc21	57	39	12	86							
Cc1cc(OCCCN(Cc2cccc(C(F)(F)F)c2Cl)CC(c2ccccc2)c2ccccc2)n2ncnc2n1	25	790	560	33							
Cc1cc(C)c2c(OCCCN(Cc3cccc(C(F)(F)F)c3Cl)CC(c3ccccc3)c3ccccc3)n[nH]c2n1		> 3000	510	25							

Source: ChEMBL document CHEMBL1152711, “Synthesis and SAR of potent LXR agonists containing an indole pharmacophore” (Bioorg Med Chem Lett, 2009)
